Measurements taken from patent EP4692094A1 (Beijing Konruns Pharmaceutical Co., Ltd., priority 2023, dated 2024).

Target: T1, KAT6A (Homo sapiens, UniProt Q92794)
T1 construct: purchased active motife (Active Motif) 81223
Assay: Enzymatic activity assay for KAT6A acetyltransferase (TR-FRET, acetylation of histone substrate H3)
Type: biochemical
Description: The acetylation effect of KAT6A on histone substrate H3 was determined using the TR-FRET (time-resolved fluorescence resonance energy transfer) method.
• 1) The compounds prepared in the examples of the present disclosure were each dissolved in dimethylsulfoxide to give solutions at a concentration of 10 mmol/L, and then the solutions were diluted to 0.2 mmol/L, i.e., 1 µL of the compound was added to 49 µL of DMSO, and 3-fold dilution was performed to give 10 concentrations. • 2) 50 nL of the test compounds (example compounds) were transferred to 384 reaction plates using Echo, two replicates for each compound, and the plates were centrifuged at a rotation speed of 1000 rpm for 1 min, the final concentration of dimethylsulfoxide (DMSO) being 0.5%. • 3) 2.5 µL of the reaction mixtures obtained in step 2 was added to the 384 reaction plates in step 2), and the plates were centrifuged at 1000 rpm for 1 min and incubated at 25 °C for 10 min. • 4) 2.5 µL of Bio-H3&AcCOA (acetyl-CoA) reaction solution was added to the 384 reaction plates in step 3), and the plates were centrifuged at a rotation speed of 1000 rpm for 1 min and incubated at 25 °C for 90 min. • 5) 5 µL of Eu-Ab& Ulight-SA detection solution was added to the 384 reaction plates in step 4), and the plates were centrifuged at 1000 rpm for 1 min and incubated at 25 °C for 60 min. • 6) The HTRF […] signals were read using a BMG high-throughput drug-screening multi-mode microplate reader.
The acetylation level of the histone H3 was analyzed by the GraphPad Prism 8 software. The reading of the negative control (0.5% DMSO wells) was set as 0% inhibition rate, and the reading of the positive control (wells with the highest concentration of the control compound) was set as 100% inhibition rate. The inhibition rates were calculated, and then IC50 values (half maximal inhibitory concentration) of test compounds were obtained by using a software nonlinear fitting formula; [formula]
Datapositive control: mean of positive control well values; Datanegative control: mean of negative control well values. Table 3. Enzymatic inhibitory activity of example compounds

T1 sequence (Q92794 whole entry): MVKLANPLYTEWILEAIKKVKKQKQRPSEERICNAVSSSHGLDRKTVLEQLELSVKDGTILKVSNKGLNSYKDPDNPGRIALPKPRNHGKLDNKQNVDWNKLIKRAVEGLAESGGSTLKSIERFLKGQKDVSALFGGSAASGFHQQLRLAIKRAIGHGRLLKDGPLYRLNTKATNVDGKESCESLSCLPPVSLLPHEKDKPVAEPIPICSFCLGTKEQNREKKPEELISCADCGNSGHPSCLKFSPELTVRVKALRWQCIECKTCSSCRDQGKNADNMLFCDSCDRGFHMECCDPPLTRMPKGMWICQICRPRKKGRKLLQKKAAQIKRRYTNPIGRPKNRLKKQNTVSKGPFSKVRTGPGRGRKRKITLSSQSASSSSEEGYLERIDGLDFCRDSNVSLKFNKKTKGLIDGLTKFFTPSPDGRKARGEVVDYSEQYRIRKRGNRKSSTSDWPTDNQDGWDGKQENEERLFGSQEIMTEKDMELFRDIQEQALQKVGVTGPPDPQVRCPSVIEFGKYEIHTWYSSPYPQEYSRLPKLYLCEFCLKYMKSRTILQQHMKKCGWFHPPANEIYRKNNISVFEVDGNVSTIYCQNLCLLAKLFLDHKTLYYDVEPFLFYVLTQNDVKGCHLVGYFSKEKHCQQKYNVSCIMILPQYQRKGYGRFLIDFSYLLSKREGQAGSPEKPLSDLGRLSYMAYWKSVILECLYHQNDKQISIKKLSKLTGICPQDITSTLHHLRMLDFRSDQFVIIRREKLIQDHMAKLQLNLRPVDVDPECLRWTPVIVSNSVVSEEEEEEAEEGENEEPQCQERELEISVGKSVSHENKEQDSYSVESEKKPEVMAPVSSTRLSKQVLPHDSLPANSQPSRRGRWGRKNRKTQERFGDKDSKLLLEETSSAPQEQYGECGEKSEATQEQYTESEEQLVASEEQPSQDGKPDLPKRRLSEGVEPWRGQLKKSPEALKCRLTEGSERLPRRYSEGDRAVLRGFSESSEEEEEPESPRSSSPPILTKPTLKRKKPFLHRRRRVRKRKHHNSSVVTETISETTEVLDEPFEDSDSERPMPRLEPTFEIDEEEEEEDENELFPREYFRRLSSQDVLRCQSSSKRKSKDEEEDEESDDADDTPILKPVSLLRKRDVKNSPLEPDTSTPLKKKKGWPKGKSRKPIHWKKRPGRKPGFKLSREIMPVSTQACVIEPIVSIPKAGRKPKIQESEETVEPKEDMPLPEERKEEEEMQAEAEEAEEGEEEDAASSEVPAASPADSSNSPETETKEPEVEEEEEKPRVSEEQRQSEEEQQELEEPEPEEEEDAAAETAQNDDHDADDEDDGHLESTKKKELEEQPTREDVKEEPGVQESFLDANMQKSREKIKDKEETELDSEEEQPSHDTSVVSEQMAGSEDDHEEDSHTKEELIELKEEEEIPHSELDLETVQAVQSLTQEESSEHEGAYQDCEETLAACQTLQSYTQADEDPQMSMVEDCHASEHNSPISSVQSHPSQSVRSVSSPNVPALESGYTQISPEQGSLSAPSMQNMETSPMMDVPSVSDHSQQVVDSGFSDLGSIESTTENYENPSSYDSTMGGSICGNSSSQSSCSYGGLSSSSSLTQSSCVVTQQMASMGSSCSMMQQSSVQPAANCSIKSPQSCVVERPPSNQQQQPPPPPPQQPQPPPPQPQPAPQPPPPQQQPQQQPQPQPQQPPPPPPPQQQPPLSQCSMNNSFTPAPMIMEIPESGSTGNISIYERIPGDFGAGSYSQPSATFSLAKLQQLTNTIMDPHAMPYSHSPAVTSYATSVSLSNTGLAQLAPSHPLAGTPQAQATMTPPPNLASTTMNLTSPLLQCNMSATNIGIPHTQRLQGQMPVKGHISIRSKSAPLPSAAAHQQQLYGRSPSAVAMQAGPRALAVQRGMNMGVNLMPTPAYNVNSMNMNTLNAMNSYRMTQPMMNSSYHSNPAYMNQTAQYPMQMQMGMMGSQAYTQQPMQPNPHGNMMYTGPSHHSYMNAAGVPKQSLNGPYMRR

Row | SMILES | IC50 [nM]
1 | COc1cc2c(cc1S(=O)(=O)Nc1noc3cc(Cn4cccn4)nc(OC)c13)OCCC2 [Example 67, N-(6-((1H-Pyrazol-1-yl)methyl)-4-methoxyisoxazolo[4,5-c]pyridin-3-yl)-6-methoxy-3,4-dihydro-1H-benzopyran-7-sulfonamide] | 1.31
2 | C#Cc1ccc(S(=O)(=O)Nc2noc3cc(Cn4cccn4)nc(OC)c23)c2occc12 [Example 96, N-(6-((1H-pyrazol-1-yl)methyl)-4-methoxyisoxazolo[4,5-c]pyridin-3-yl)-4-ethynyl-benzofuran-7-sulfonamide] | 6.67
3 | COc1cc2c(c(S(=O)(=O)Nc3noc4cc(Cn5cccn5)nc(OC)c34)c1)OC(C)(C)CC2 [Example 99] | 2.79
4 | C#Cc1ccc(S(=O)(=O)Nc2noc3cc(Cn4cccn4)nc(OC)c23)c2c1CCO2 [Example 33, N-(6-((1H-Pyrazol-1-yl)methyl)-4-methoxyisoxazolo[4,5-c]pyridin-3-yl)-4-ethynyl-2,3-dihydrobenzofuran-7-sulfonamide] | 3.13
5 | COc1ccc2c(c1S(=O)(=O)Nc1noc3cc(Cn4cccn4)nc(OC)c13)OC(C)(C)O2 [Example 74, N-(6-((1H-Pyrazol-1-yl)methyl)-4-methoxyisoxazolo[4,5-c]pyridin-3-yl)-5-methoxy-2,2-dimethyl-1,3-benzodioxolane-4-sulfonamide] | 1.77
6 | COc1nc(Cn2cccn2)cc2onc(NS(=O)(=O)c3ccc4oc(C)nc4c3)c12 [Example 52, N-(6-((1H-Pyrazol-1-yl)methyl)-4-methoxyisoxazolo[4,5-c]pyridin-3-yl)-2-methylbenzo[d]oxazole-5-sulfonamide] | 34.3
7 | COc1ccc2ccoc2c1S(=O)(=O)Nc1noc2cc(Cn3cc(C)cn3)nc(OC)c12 [Example 83, 6-Methoxy-N-(4-methoxy-6-((4-methyl-1H-pyrazol-1-yl)methyl)isoxazolo[4,5-c]pyridin-3-yl)benzofuran-7-sulfonamide] | 4.12
8 | COc1nc(Cn2cccn2)cc2onc(NS(=O)(=O)c3ccc4c(c3)CCCO4)c12 [Example 50, N-(6-((1H-Pyrazol-1-yl)methyl)-4-methoxyisoxazolo[4,5-c]pyridin-3-yl)-3,4-dihydro-1H-benzopyran-6-sulfonamide] | 8.67
9 | COc1cc2c(cc1S(=O)(=O)Nc1noc3cc(Cn4cccn4)nc(OC)c13)OCC2(C)C [Example 101, N-(6-((1H-pyrazol-1-yl)methyl)-4-methoxyisoxazolo[4,5-c]pyridin-3-yl)-5-methoxy-3,3-dimethyl-2H-benzofuran-6-sulfonamide] | 2.04
10 | COc1ccc2ccoc2c1S(=O)(=O)Nc1noc2cc(Cn3ccc(C)n3)nc(OC)c12 [Example 71, 6-Methoxy-N-(4-methoxy-6-((3-methyl-1H-pyrazol-1-yl)methyl)isoxazolo[4,5-c]pyridin-3-yl)benzofuran-7-sulfonamide] | 4.49
11 | COc1nc(Cn2cccn2)cc2onc(NS(=O)(=O)c3cccc4c3CCC4)c12 [Example 26, N-(6-((1H-Pyrazol-1-yl)methyl)-4-methoxyisoxazolo[4,5-c]pyridin-3-yl)-2,3-dihydro-1H-indene-4-sulfonamide] | 21.8
12 | COc1ccc2c(c1S(=O)(=O)Nc1noc3cc(Cn4cccn4)nc(OC)c13)OC(C)(C)C2 [Example 100, N-(6-((1H-pyrazol-1-yl)methyl)-4-methoxyisoxazolo[4,5-c]pyridin-3-yl)-6-methoxy-2,2-dimethyl-3H-benzofuran-7-sulfonamide] | 1.06
13 | COc1ccc(S(=O)(=O)Nc2noc3cc(Cn4cccn4)nc(OC)c23)c2occc12 [Example 64, N-(6-((1H-Pyrazol-1-yl)methyl)-4-methoxyisoxazolo[4,5-c]pyridin-3-yl)-4-methoxybenzofuran-7-sulfonamide] | 8.85
14 | COc1nc(Cn2nccn2)cc2onc(NS(=O)(=O)c3cccc4c3OCCO4)c12 [Example 29, N-(6-((2H-1,2,3-Triazol-2-yl)methyl)-4-methoxyisoxazolo[4,5-c]pyridin-3-yl)-2,3-dihydrobenzo[b][1,4]dioxine-5-sulfonamide] | 1.57
15 | COc1c(S(=O)(=O)Nc2noc3cc(Cn4cccn4)nc(OC)c23)ccc2ccoc12 [Example 86, N-(6-((1H-Pyrazol-1-yl)methyl)-4-methoxyisoxazolo[4,5-c]pyridin-3-yl)-7-methoxybenzofuran-6-sulfonamide] | 10
16 | COc1nc(Cn2cccn2)cc2onc(NS(=O)(=O)c3ccc4occc4c3)c12 [Example 53, N-(6-((1H-Pyrazol-1-yl)methyl)-4-methoxyisoxazolo[4,5-c]pyridin-3-yl)benzofuran-5-sulfonamide] | 4.56
17 | COc1nc(Cn2cccn2)cc2onc(NS(=O)(=O)c3cc(C#N)cc4c3OCCC4)c12 [Example 107, N-(6-((1H-pyrazol-1-yl)methyl)-4-methoxyisoxazolo[4,5-c]pyridin-3-yl)-6-cyano-3,4-dihydro-1H-benzopyran-8-sulfonamide] | 5.86
18 | COc1nc(Cn2cccn2)cc2onc(NS(=O)(=O)c3ccc4c(c3)CN(C)C(=O)O4)c12 [Example 54, N-(6-((1H-Pyrazol-1-yl)methyl)-4-methoxyisoxazolo[4,5-c]pyridin-3-yl)-3-methyl-2-oxo-3,4-dihydro-2H-benzoxazine-6-sulfonamide] | 110

Further compounds by falling IC50, results first:

Row | IC50 [nM] | SMILES
19 | 75.9 | COc1nc(Cn2nccn2)cc2onc(NS(=O)(=O)c3cccc4c3ccn4C)c12 [Example 21, N-(6-((2H-1,2,3-Triazol-2-yl)methyl)-4-methoxyisoxazolo[4,5-c]pyridin-3-yl)-1-methyl-1H-indole-4-sulfonamide]
20 | 34.7 | COc1nc(Cc2ccccn2)cc2onc(NS(=O)(=O)c3cccc4c3OCCO4)c12 [Example 32, N-(4-Methoxy-6-(pyridin-2-ylmethyl)isoxazolo[4,5-c]pyridin-3-yl)-2,3-dihydrobenzo[b][1,4]dioxine-5-sulfonamide]
21 | 17.6 | COc1cc2c(cc1S(=O)(=O)Nc1noc3cc(C(F)(F)n4cccn4)nc(OC)c13)CCCC2 [Example 91, N-(6-(Difluoro(1H-pyrazol-1-yl)methyl)-4-methoxyisoxazolo[4,5-c]pyridin-3-yl)-3-methoxy-5,6,7,8-tetrahydronaphthalene-2-sulfonamide]
22 | 7.23 | COc1nc(C(F)n2cccn2)cc2onc(NS(=O)(=O)c3cccc4c3OCC4)c12 (stereo not drawn) [Example 18, N-(6-(Fluoro(1H-pyrazol-1-yl)methyl)-4-methoxyisoxazolo[4,5-c]pyridin-3-yl)-2,3-dihydrobenzofuran-7-sulfonamide]
23 | 5.68 | COc1nc(Cn2cccn2)cc2onc(NS(=O)(=O)c3cccc4c3OCCC4)c12 [Example 7, N-(6-((1H-Pyrazol-1-yl)methyl)-4-methoxyisoxazolo[4,5-c]pyridin-3-yl)-3,4-dihydro-1H-benzopyran-8-sulfonamide]
24 | 4.67 | COc1nc(Cn2cccn2)cc2onc(NS(=O)(=O)c3cccc4occc34)c12 [Example 47, N-(6-((1H-Pyrazol-1-yl)methyl)-4-methoxyisoxazolo[4,5-c]pyridin-3-yl)benzofuran-4-sulfonamide]
25 | 2.37 | COc1ccc(S(=O)(=O)Nc2noc3cc(Cn4cccn4)nc(OC)c23)c2c1C=CCO2 [Example 94, N-(6-((1H-Pyrazol-1-yl)methyl)-4-methoxyisoxazolo[4,5-c]pyridin-3-yl)-5-methoxy-2H-benzopyran-8-sulfonamide]
26 | 1.63 | COc1ccc(S(=O)(=O)Nc2noc3cc(Cn4cccn4)nc(OC)c23)c2c1CCCO2 [Example 95, N-(6-((1H-Pyrazol-1-yl)methyl)-4-methoxyisoxazolo[4,5-c]pyridin-3-yl)-5-methoxy-3,4-dihydro-1H-benzopyran-8-sulfonamide]
27 | 0.97 | COc1ccc2c(c1S(=O)(=O)Nc1noc3cc(Cn4cccn4)nc(OC)c13)OCCO2 [Example 73, N-(6-((1H-Pyrazol-1-yl)methyl)-4-methoxyisoxazolo[4,5-c]pyridin-3-yl)-6-methoxy-2,3-dihydrobenzo[b][1,4]dioxine-5-sulfonamide]
28 | 0.94 | COc1nc(Cn2cccn2)cc2onc(NS(=O)(=O)c3cc(C4CC4)cc4c3OCCC4)c12 [Example 106, N-(6-((1H-pyrazol-1-yl)methyl)-4-methoxyisoxazolo[4,5-c]pyridin-3-yl)-6-cyclopropyl-3,4-dihydro-1H-benzopyran-8-sulfonamide]
29 | 0.87 | COc1cc2c(ccn2C)cc1S(=O)(=O)Nc1noc2cc(Cn3cccn3)nc(OC)c12 [Example 69, N-(6-((1H-Pyrazol-1-yl)methyl)-4-methoxyisoxazolo[4,5-c]pyridin-3-yl)-6-methoxy-1-methyl-1H-indole-5-sulfonamide]
30 | 0.85 | COc1cc2c(cc1S(=O)(=O)Nc1noc3cc(Cn4cccn4)nc(OC)c13)CCC2 [Example 70, N-(6-((1H-Pyrazol-1-yl)methyl)-4-methoxyisoxazolo[4,5-c]pyridin-3-yl)-6-methoxy-2,3-dihydro-1H-indene-5-sulfonamide]
